US12077503B2, “Substituted cyclic amides and their use as herbicides” (FMC CORPORATION, priority 2015, dated 2024)

Legend:
Type in all cases: in vivo
Kochia (Kochia scoparia) [1] = assay: Test A preemergence; conditions: Bassia scoparia, pre-emergence, 240 h, preemergence, 0 to 100 scale where 0 is no effect and 100 is complete control, read-out: Kochia plant response rating; for pest or weed control at 125 g/ha: 125 g ai/ha, visual injury rating, approximately 10 d; for pest or weed control at 500 g/ha: 500 g ai/ha
Outline: (§1)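 Each rating is a visual injury score from 0 to 100 given about 10 d after treatment, judged against untreated controls kept alongside in the greenhouse. In loam soil–sand blend, seeds got a preemergence directed soil spray, while postemergence plants were 2 to 10 cm tall at spraying.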

[2] = test system: giant foxtail (Setaria faberii); assay: Test A preemergence; conditions: Setaria faberi, pre-emergence, 240 h, preemergence, 0 to 100 scale where 0 is no effect and 100 is complete control, read-out: Foxtail, Giant plant response rating; for pest or weed control at 125 g/ha: 125 g ai/ha, visual injury rating, approximately 10 d; for pest or weed control at 500 g/ha: 500 g ai/ha
Outline: as §1

[3] = test system: pigweed (Amaranthus retroflexus); assay: Test A preemergence; conditions: Amaranthus retroflexus, pre-emergence, 240 h, preemergence, 0 to 100 scale where 0 is no effect and 100 is complete control, read-out: Pigweed plant response rating; for pest or weed control at 125 g/ha: 125 g ai/ha, visual injury rating, approximately 10 d; for pest or weed control at 500 g/ha: 500 g ai/ha
[4] = test system: ragweed (common ragweed, Ambrosia elatior); assay: Test A preemergence; conditions: Ambrosia artemisiifolia, pre-emergence, 240 h, preemergence, 0 to 100 scale where 0 is no effect and 100 is complete control, read-out: Ragweed plant response rating; for pest or weed control at 125 g/ha: 125 g ai/ha, visual injury rating, approximately 10 d; for pest or weed control at 500 g/ha: 500 g ai/ha
Outline: as §1

[5] = test system: ryegrass, Italian (Italian ryegrass, Lolium multiflorum); assay: Test A preemergence; conditions: Lolium multiflorum, pre-emergence, 240 h, preemergence, 0 to 100 scale where 0 is no effect and 100 is complete control, read-out: Ryegrass, Italian plant response rating; for pest or weed control at 125 g/ha: 125 g ai/ha, visual injury rating, approximately 10 d; for pest or weed control at 500 g/ha: 500 g ai/ha
Outline: as §1

[6] = test system: Galium (catchweed bedstraw, Galium aparine); assay: Test A postemergence; conditions: Galium, post-emergence, 240 h, postemergence; for pest or weed control at 125 g/ha: 125 g ai/ha, visual injury vs untreated controls after approx. 10 d, 0 = no effect, 100 = complete control, read-out: Galium plant response rating (0 to 100 scale); for pest or weed control at 500 g/ha: 500 g ai/ha, 0 to 100 scale, 0 is no effect, 100 is complete control, read-out: Galium plant response rating
Outline: as §1

Kochia (Kochia scoparia) [7] = assay: Test A postemergence; conditions: Bassia scoparia, post-emergence, 240 h, postemergence; for pest or weed control at 125 g/ha: 125 g ai/ha, visual injury vs untreated controls after approx. 10 d, 0 = no effect, 100 = complete control, read-out: Kochia plant response rating (0 to 100 scale); for pest or weed control at 500 g/ha: 500 g ai/ha, 0 to 100 scale, 0 is no effect, 100 is complete control, read-out: Kochia plant response rating
Outline: as §1

[8] = test system: blackgrass (Alopecurus myosuroides); assay: Test A postemergence; conditions: Alopecurus myosuroides, post-emergence, 240 h, postemergence; for pest or weed control at 125 g/ha: 125 g ai/ha, visual injury vs untreated controls after approx. 10 d, 0 = no effect, 100 = complete control, read-out: Blackgrass plant response rating (0 to 100 scale); for pest or weed control at 500 g/ha: 500 g ai/ha, 0 to 100 scale, 0 is no effect, 100 is complete control, read-out: Blackgrass plant response rating
Outline: as §1

corn (Zea mays) = assay: Test A postemergence; conditions: Zea mays, post-emergence, 240 h, postemergence; for plant injury at 125 g/ha: 125 g ai/ha, visual injury vs untreated controls after approx. 10 d, 0 = no effect, 100 = complete control, read-out: Corn plant response rating (0 to 100 scale); for plant injury at 500 g/ha: 500 g ai/ha, 0 to 100 scale, 0 is no effect, 100 is complete control, read-out: Corn plant response rating
Outline: as §1

[9] = test system: giant foxtail (Setaria faberii); assay: Test A postemergence; conditions: Setaria faberi, post-emergence, 240 h, postemergence; for pest or weed control at 125 g/ha: 125 g ai/ha, visual injury vs untreated controls after approx. 10 d, 0 = no effect, 100 = complete control, read-out: Foxtail, Giant plant response rating (0 to 100 scale); for pest or weed control at 500 g/ha: 500 g ai/ha, 0 to 100 scale, 0 is no effect, 100 is complete control, read-out: Foxtail, Giant plant response rating
Outline: as §1

[10] = test system: pigweed (Amaranthus retroflexus); assay: Test A postemergence; conditions: Amaranthus retroflexus, post-emergence, 240 h, postemergence; for pest or weed control at 125 g/ha: 125 g ai/ha, visual injury vs untreated controls after approx. 10 d, 0 = no effect, 100 = complete control, read-out: Pigweed plant response rating (0 to 100 scale); for pest or weed control at 500 g/ha: 500 g ai/ha, 0 to 100 scale, 0 is no effect, 100 is complete control, read-out: Pigweed plant response rating
Outline: as §1

[11] = test system: ragweed (common ragweed, Ambrosia elatior); assay: Test A postemergence; conditions: Ambrosia artemisiifolia, post-emergence, 240 h, postemergence; for pest or weed control at 125 g/ha: 125 g ai/ha, visual injury vs untreated controls after approx. 10 d, 0 = no effect, 100 = complete control, read-out: Ragweed plant response rating (0 to 100 scale); for pest or weed control at 500 g/ha: 500 g ai/ha, 0 to 100 scale, 0 is no effect, 100 is complete control, read-out: Ragweed plant response rating
Outline: as §1

[12] = test system: ryegrass, Italian (Italian ryegrass, Lolium multiflorum); assay: Test A postemergence; conditions: Lolium multiflorum, post-emergence, 240 h, postemergence; for pest or weed control at 125 g/ha: 125 g ai/ha, visual injury vs untreated controls after approx. 10 d, 0 = no effect, 100 = complete control, read-out: Ryegrass, Italian plant response rating (0 to 100 scale); for pest or weed control at 500 g/ha: 500 g ai/ha, 0 to 100 scale, 0 is no effect, 100 is complete control, read-out: Ryegrass, Italian plant response rating
Outline: as §1

[13] = test system: wheat (Triticum aestivum); assay: Test A postemergence; conditions: Triticum aestivum, post-emergence, 240 h, postemergence; for plant injury at 125 g/ha: 125 g ai/ha, visual injury vs untreated controls after approx. 10 d, 0 = no effect, 100 = complete control, read-out: Wheat plant response rating (0 to 100 scale); for plant injury at 500 g/ha: 500 g ai/ha, 0 to 100 scale, 0 is no effect, 100 is complete control, read-out: Wheat plant response rating
Outline: as §1

COc1ccc([C@H]2CN(C)C(=O)[C@@H]2C(=O)Nc2ccccc2F)c(OC)c1 [Compound 1215]
pest or weed control at 125 g/ha (Kochia (Kochia scoparia) [1]): 0%
pest or weed control at 500 g/ha (Kochia (Kochia scoparia) [1]): 90%
pest or weed control at 125 g/ha [2]: 60%
pest or weed control at 500 g/ha [2]: 90%
pest or weed control at 125 g/ha [3]: 0%
pest or weed control at 500 g/ha [3]: 0%
pest or weed control at 125 g/ha [4]: 0%
pest or weed control at 500 g/ha [4]: 0%
pest or weed control at 125 g/ha [5]: 0%
pest or weed control at 500 g/ha [5]: 0%
pest or weed control at 125 g/ha [6]: 0%
pest or weed control at 500 g/ha [6]: 0%
pest or weed control at 125 g/ha (Kochia (Kochia scoparia) [7]): 0%
pest or weed control at 500 g/ha (Kochia (Kochia scoparia) [7]): 30%
pest or weed control at 125 g/ha [8]: 0%
pest or weed control at 500 g/ha [8]: 0%
plant injury at 125 g/ha (corn (Zea mays)): 0%
plant injury at 500 g/ha (corn (Zea mays)): 0%
pest or weed control at 125 g/ha [9]: 70%
pest or weed control at 500 g/ha [9]: 90%
pest or weed control at 125 g/ha [10]: 0%
pest or weed control at 500 g/ha [10]: 0%
pest or weed control at 125 g/ha [11]: 0%
pest or weed control at 500 g/ha [11]: 0%
pest or weed control at 125 g/ha [12]: 0%
pest or weed control at 500 g/ha [12]: 0%
plant injury at 125 g/ha [13]: 0%
plant injury at 500 g/ha [13]: 0%

COc1cc([C@H]2CN(C)C(=O)[C@@H]2C(=O)Nc2ccccc2F)cc(OC)c1OC [Compound 1217]
pest or weed control at 125 g/ha (Kochia (Kochia scoparia) [1]): 0%
pest or weed control at 500 g/ha (Kochia (Kochia scoparia) [1]): 0%
pest or weed control at 125 g/ha [2]: 90%
pest or weed control at 500 g/ha [2]: 100%
pest or weed control at 125 g/ha [3]: 0%
pest or weed control at 500 g/ha [3]: 0%
pest or weed control at 125 g/ha [4]: 0%
pest or weed control at 500 g/ha [4]: 0%
pest or weed control at 125 g/ha [5]: 0%
pest or weed control at 500 g/ha [5]: 0%
pest or weed control at 125 g/ha [6]: 0%
pest or weed control at 500 g/ha [6]: 0%
pest or weed control at 125 g/ha (Kochia (Kochia scoparia) [7]): 0%
pest or weed control at 500 g/ha (Kochia (Kochia scoparia) [7]): 0%
pest or weed control at 125 g/ha [8]: 0%
pest or weed control at 500 g/ha [8]: 0%
plant injury at 125 g/ha (corn (Zea mays)): 0%
plant injury at 500 g/ha (corn (Zea mays)): 0%
pest or weed control at 125 g/ha [9]: 90%
pest or weed control at 500 g/ha [9]: 90%
pest or weed control at 125 g/ha [10]: 0%
pest or weed control at 500 g/ha [10]: 0%
pest or weed control at 125 g/ha [11]: 0%
pest or weed control at 500 g/ha [11]: 0%
pest or weed control at 125 g/ha [12]: 0%
pest or weed control at 500 g/ha [12]: 0%
plant injury at 125 g/ha [13]: 0%
plant injury at 500 g/ha [13]: 0%
